Assay results reported in patent US20250340592A1, “MAMMALIAN MILK-DERIVED PEPTIDES WITH ANTIMICROBIAL ACTIVITY” (MATRUBIALS INC., priority 2022, published 2025).
Where no end group is shown, it is not given here.

Experiments:
S. aureus MRSA [1] = experiment: direct kill assay of formulated peptide (FIG. 13); type: cell-based, Staphylococcus aureus; details: 0.5% by weight peptide in 20% propylene glycol and 2% hydroxypropyl cellulose
Protocol: (§1) FIG. 13 depicts the retention of antimicrobial activity of the indicated peptides M6 (SEQ ID NO: 26), M14 (SEQ ID NO:177), M16 (SEQ ID NO: 213) and M22 (SEQ ID NO: 291), with each peptide formulated in a composition with 20% propylene glycol and 2% hydroxypropyl cellulose (F is the formulation without a peptide), in the presence of S. aureus MRSA, from 0 minutes (min) to 60 minutes, as indicated, where the amount of growth is indicated as: 4 is full growth; 3 is too many colonies to count; 2 is countable colonies; and 1 is no growth.
In FIG. 13, the impact of the formulation comprising 20% propylene glycol and 2% hydroxypropyl cellulose and 0.5% by weight of peptide M6 (SEQ ID NO: 26), M7 (SEQ ID NO: 31), M14 (SEQ ID NO: 177), M16 (SEQ ID NO: 213), or M22 (SEQ ID NO: 291) was tested using a direct kill assay.

P. aeruginosa [2] = experiment: colony-forming assay, CFU/ml over time (FIG. 10A); type: cell-based, Pseudomonas aeruginosa; details: peptide 0.5% (5 mg/ml); for sensitivity of P. aeruginosa to peptide (CFU/ml): 0.8% NaCl, T=0 up to 60 minutes; for sensitivity of P. aeruginosa to peptide as compared to Indolicidin: after 20 minutes
From the text: (§2) FIGS. 10A, 10B, and 10C are graphs depicting bacterial viability in colony forming units (CFU) per milliliter (ml) over time (minutes) in the presence of select polypeptides: SEQ ID NO: 26 (M6); SEQ ID NO: 31 (M7); SEQ ID NO: 177 (M14); SEQ ID NO: 213 (M16); and SEQ ID NO: 291 (M22) in comparison to Indolicidin (IND) in the presence of P. aeruginosa (FIG. 10A), S. aureus MRSA (FIG. 10B), and S. epidermidis (FIG. 10C), respectively.
(§3) In FIGS. 10A, 10B, and 10C, quantitative colony-forming units/ml were assayed using the indicated peptides at a final concentration of 0.5% (5 mg/ml). For this colony-forming assay, peptides were incubated with indicated bacterial strains in 0.8% NaCl, and aliquots were removed starting time T=0, up to 60 minutes, followed by serial dilution and plating on Tryptic soy agar plates for overnight incubation, and enumeration of CFU/ml.

L. crispatus = experiment: direct kill assay (time-kill, FIG. 8); type: cell-based, Lactobacillus crispatus; details: 0.375, 0.75, 1.5 mg/ml peptide, spotted 30 min post incubation
Protocol: (§4) For these peptides, 0.375 mg/ml concentration is sufficient to cause loss of viability of G. vaginalis and L. iners as compared to the absence of peptides. In FIG. 8A, M1-M8 peptides (SEQ ID NOS: 1, 6, 11, 16, 21, 26, 31, and 36) were tested using direct kill assays. Equal inoculums of G. vaginalis, L. iners and L. crispatus were incubated with either water (0.00), or 0.375 mg/ml, 0.75 mg/ml and 1.5 mg/ml. of peptides. Aliquots were spotted 30 minutes (min) post incubation on human blood tween (HBT) bilayer media, Tryptic soy agar (+5% sheep blood) or MRS (de Man, Rogosa, and Sharpe) agar plates respectively. For these peptides, 0.375 mg/ml concentration is sufficient to cause loss of viability of G. vaginalis and L. iners as compared to the absence of peptides.

S. epidermidis = experiment: colony-forming assay, CFU/ml over time (FIG. 10C); type: cell-based, Staphylococcus epidermidis; details: peptide 0.5% (5 mg/ml), 0.8% NaCl, T=0 up to 60 minutes
From the text: as §2, §3

L. iners = experiment: direct kill assay (time-kill, FIG. 8); type: cell-based, Lactobacillus iners; details: 0.375, 0.75, 1.5 mg/ml peptide, spotted 30 min post incubation
Protocol: as §4

G. vaginalis = experiment: direct kill assay (time-kill, FIG. 8); type: cell-based, Gardnerella vaginalis; details: 0.375, 0.75, 1.5 mg/ml peptide, spotted 30 min post incubation
Protocol: as §4

S. aureus MRSA [3] = experiment: colony-forming assay, CFU/ml over time (FIG. 10B); type: cell-based, Staphylococcus aureus; details: peptide 0.5% (5 mg/ml); for sensitivity of S. aureus to peptide (CFU/ml): 0.8% NaCl, T=0 up to 60 minutes; for sensitivity of S. aureus MRSA to peptide as compared to Indolicidin: after 20 minutes
From the text: as §2, §3

P. aeruginosa [4] = experiment: time-kill assays (FIG. 9); type: cell-based, Pseudomonas aeruginosa; details: as compared to M1-M5
Protocol: FIG. 9. depicts the antibiotic activity (in concentration of polypeptide at 0.375 mg/ml (****), 0.75 mg/ml (***), 1.5 mg/ml (**), or 3 mg/ml (*), as indicated) for each of polypeptides (SEQ ID NO: 1 (M1); SEQ ID NO: 6 (M2); SEQ ID NO: 11 (M3); SEQ ID NO: 16 (M4); SEQ ID NO: 21 (M5); SEQ ID NO: 26 (M6); SEQ ID NO: 31 (M7); SEQ ID NO: 36 (M8); SEQ ID NO: 41 (M9); SEQ ID NO: 76 (M10); SEQ ID NO: 106 (M11); SEQ ID NO: 141 (M12); SEQ ID NO: 142 (M13); SEQ ID NO: 177 (M14); SEQ ID NO:178 (M15); SEQ ID NO: 213 (M16); SEQ ID NO: 219 (M18), SEQ ID NO: 220 (M19); SEQ ID NO: 256 (M21); and SEQ ID NO: 291 (M22)) against P. aeruginosa and S. aureus MRSA, as indicated.
In FIG. 9, the bacterial pathogens P. aeruginosa and S. aureus—associated with skin, burn and wound infections were tested.

[5] = test system: EpiVaginal tissue model (Mattek); type: cell-based
Protocol: Table 2 below show the results of peptides M6 (SEQ ID NO: 26) and M14 (SEQ ID NO: 177) were assayed for their impact on vaginal irritation using the Epi Vaginal model to determine the exposure time to decrease the tissue viability to 50% (ET50) in EpiVaginal™ tissue model (Mattek). In brief, after exposure to the M6 and M14 peptides at 20 mg/ml final concentration for various times, toxicity was determined by measuring the relative conversion of MTT (3-(4,5-dimethylthiazol-2-yl)-2,5-dephenyltetrazolium bromide) in the vaginal tissue samples treated with peptide compared to tissues treated with a solvent negative control. Positive control was Triton-X-100 at 1% final concentration.

A. baumannii [6] = experiment: growth of A. baumannii with peptide (FIG. 17); type: cell-based, Acinetobacter baumannii; details: 250 μg/ml peptide, 0.01×MH broth
A. baumannii [7] = experiment: direct kill assay of formulated peptide (FIG. 12D); type: cell-based, Acinetobacter baumannii; details: 0.5% peptide in 20% propylene glycol and 2% hydroxypropyl cellulose, 0-60 min
Protocol: as §1, with “FIGS. 12A, 12B, 12C, and 12D depict” for “FIG. 13 depicts”, “G. vaginalis (FIG. 12A), L. iners (FIG. 12B), L. crispatus (FIG. 12C), or A. baumannii (FIG. 12D),” for “S. aureus MRSA,”
In FIGS. 12A, 12B, 12C, and 12D, the impact of the formulation comprising 20% propylene glycol and 2% hydroxypropyl cellulose and 0.5% by weight of peptide M6 (SEQ ID NO: 26), M7 (SEQ ID NO: 31), M14 (SEQ ID NO: 177), M16 (SEQ ID NO: 213), or M22 (SEQ ID NO: 291) was tested in a direct kill assay as described herein.

[8] = test system: MRSN panel P. aeruginosa strain NR-51553; type: cell-based, Pseudomonas aeruginosa; details: 0.5% CMC and 0.01×MH broth
From the text: FIGS. 15A-15B show the growth of P. aeruginosa strain NR-51553 of FIG. 14A in a modified CLSI-based broth dilution assay, in the presence of peptide M16 (SEQ ID NO: 213) in 0.01×MH broth (FIG. 15A) and in the presence of peptide M16 in 0.01×MH broth and 0.5% carboxymethyl cellulose (CMC) (FIG. 15B), where the amount of growth is indicated as: 4 is full growth; 3 is too many colonies to count; 2 is countable colonies; and 1 is no growth.
FIG. 14A indicates sensitive(S) or resistant (R) relative to the listed antibiotic for eight of the more peptide-resistant […] strains of 100 MRSN panel strains (NR-51553, NR-51556, NR-51570, NR51597, NR-51520, NR-51546, NR-51574, and NR-51588). […] CLSI-based method described in CLSI document M07-A10, Vol. 35, No. 2, 2015 (ISBN 1-56238-988-2).

## HYYAVAVVK (Synthetic: M22)
S. aureus MRSA [1]
  antibacterial activity against S. aureus MRSA in formulation: retains antibacterial activity
  time from which viability of S. aureus MRSA is reduced: 0 min

## PVPQKVRPQR (Synthetic: M7)
P. aeruginosa [2]
  sensitivity of P. aeruginosa to peptide (CFU/ml): particularly sensitive
  sensitivity of P. aeruginosa to peptide as compared to Indolicidin: more sensitive
L. crispatus
  polypeptides target L. crispatus (time-kill images): not L. crispatus
S. epidermidis
  sensitivity of S. epidermidis to peptide (CFU/ml): also sensitive
L. iners
  polypeptides target L. iners (time-kill images): target
S. aureus MRSA [1]
  antibacterial activity against S. aureus MRSA in formulation: retains antibacterial activity
G. vaginalis
  polypeptides target G. vaginalis (time-kill images): target
S. aureus MRSA [3]
  sensitivity of S. aureus to peptide (CFU/ml): also sensitive
  sensitivity of S. aureus MRSA to peptide as compared to Indolicidin: more sensitive
P. aeruginosa [4]
  effectiveness in reducing the viability of P. aeruginosa: more effective

## RPRIPKASAK [M6, RPRIPKASAK]
[5]
  ET50: >24 h

## RQPRTHKYAVRVVKK (Synthetic: M15)
P. aeruginosa [4]
  effectiveness in reducing the viability of P. aeruginosa: more effective

## GKRKPVTRAR (Synthetic: M2)
L. crispatus
  polypeptides target L. crispatus (time-kill images): not L. crispatus
L. iners
  polypeptides target L. iners (time-kill images): target
G. vaginalis
  polypeptides target G. vaginalis (time-kill images): target

## HKYAVRVVKK [M16, HKYAVRVVKK]
P. aeruginosa [2]
  sensitivity of P. aeruginosa to peptide (CFU/ml): particularly sensitive
  sensitivity of P. aeruginosa to peptide as compared to Indolicidin: more sensitive
S. epidermidis
  sensitivity of S. epidermidis to peptide (CFU/ml): also sensitive
A. baumannii [6]
  efficacy on A. baumannii, M16 at 4 hours compared to M14 at 24 hours: more efficacious
A. baumannii [7]
  sensitivity of growth of A. baumannii, as compared to M22: more sensitive
S. aureus MRSA [1]
  antibacterial activity against S. aureus MRSA in formulation: retains antibacterial activity
S. aureus MRSA [3]
  sensitivity of S. aureus to peptide (CFU/ml): also sensitive
  sensitivity of S. aureus MRSA to peptide as compared to Indolicidin: more sensitive
[8]
  minimal bactericidal concentration (MBC): 15 µg/mL

## RGPPKSCRKRD [M14, RGPPKSCRKRD]
[5]
  ET50: >24 h

## Triton-X-100 [reference compound]
[5]
  ET50: 1.55 h

## NTNRPRTKRA (Synthetic: M5)
L. crispatus
  polypeptides target L. crispatus (time-kill images): not L. crispatus
L. iners
  polypeptides target L. iners (time-kill images): target
G. vaginalis
  polypeptides target G. vaginalis (time-kill images): target

## KTPKAVNKCR (Synthetic: M8)
L. crispatus
  polypeptides target L. crispatus (time-kill images): not L. crispatus
L. iners
  polypeptides target L. iners (time-kill images): target
G. vaginalis
  polypeptides target G. vaginalis (time-kill images): target
P. aeruginosa [4]
  effectiveness in reducing the viability of P. aeruginosa: more effective

## QHQKAKKPWT (Synthetic: M3)
L. crispatus
  polypeptides target L. crispatus (time-kill images): not L. crispatus
L. iners
  polypeptides target L. iners (time-kill images): target
G. vaginalis
  polypeptides target G. vaginalis (time-kill images): target

## HQKMAKPWTQ (Synthetic: M4)
L. crispatus
  polypeptides target L. crispatus (time-kill images): not L. crispatus
L. iners
  polypeptides target L. iners (time-kill images): target
G. vaginalis
  polypeptides target G. vaginalis (time-kill images): target

## PKVERRPRPR (Synthetic: M1)
L. crispatus
  polypeptides target L. crispatus (time-kill images): not L. crispatus
L. iners
  polypeptides target L. iners (time-kill images): target
G. vaginalis
  polypeptides target G. vaginalis (time-kill images): target
